Broadly, the Ki is a measure of affinity in units of concentration, obtained from inhibition or displacement. High values mean a looser hold on the target, low ones a stronger hold on the target.

Test [1] has as its target T1, Interstitial collagenase (Homo sapiens, UniProt P03956).
T1 sequence (P03956 whole entry): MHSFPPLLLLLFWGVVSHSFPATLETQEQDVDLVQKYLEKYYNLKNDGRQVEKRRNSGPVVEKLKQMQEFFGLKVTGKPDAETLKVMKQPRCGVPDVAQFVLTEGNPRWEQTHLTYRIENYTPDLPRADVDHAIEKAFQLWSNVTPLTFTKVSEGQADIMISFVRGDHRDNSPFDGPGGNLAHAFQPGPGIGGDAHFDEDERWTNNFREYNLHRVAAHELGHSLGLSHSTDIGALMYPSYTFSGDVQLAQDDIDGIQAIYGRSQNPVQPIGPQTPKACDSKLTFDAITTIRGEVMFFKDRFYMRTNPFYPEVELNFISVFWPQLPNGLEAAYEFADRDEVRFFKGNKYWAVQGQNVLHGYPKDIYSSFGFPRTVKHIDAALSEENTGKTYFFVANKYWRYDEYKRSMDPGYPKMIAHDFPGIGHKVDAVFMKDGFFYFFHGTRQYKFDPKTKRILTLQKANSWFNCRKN
Put plainly: Inhibition of matrix metalloprotease-1.

In test [2] the target is T2, Bone morphogenetic protein 1 (Homo sapiens, UniProt P13497).
T2 sequence (P13497 whole entry): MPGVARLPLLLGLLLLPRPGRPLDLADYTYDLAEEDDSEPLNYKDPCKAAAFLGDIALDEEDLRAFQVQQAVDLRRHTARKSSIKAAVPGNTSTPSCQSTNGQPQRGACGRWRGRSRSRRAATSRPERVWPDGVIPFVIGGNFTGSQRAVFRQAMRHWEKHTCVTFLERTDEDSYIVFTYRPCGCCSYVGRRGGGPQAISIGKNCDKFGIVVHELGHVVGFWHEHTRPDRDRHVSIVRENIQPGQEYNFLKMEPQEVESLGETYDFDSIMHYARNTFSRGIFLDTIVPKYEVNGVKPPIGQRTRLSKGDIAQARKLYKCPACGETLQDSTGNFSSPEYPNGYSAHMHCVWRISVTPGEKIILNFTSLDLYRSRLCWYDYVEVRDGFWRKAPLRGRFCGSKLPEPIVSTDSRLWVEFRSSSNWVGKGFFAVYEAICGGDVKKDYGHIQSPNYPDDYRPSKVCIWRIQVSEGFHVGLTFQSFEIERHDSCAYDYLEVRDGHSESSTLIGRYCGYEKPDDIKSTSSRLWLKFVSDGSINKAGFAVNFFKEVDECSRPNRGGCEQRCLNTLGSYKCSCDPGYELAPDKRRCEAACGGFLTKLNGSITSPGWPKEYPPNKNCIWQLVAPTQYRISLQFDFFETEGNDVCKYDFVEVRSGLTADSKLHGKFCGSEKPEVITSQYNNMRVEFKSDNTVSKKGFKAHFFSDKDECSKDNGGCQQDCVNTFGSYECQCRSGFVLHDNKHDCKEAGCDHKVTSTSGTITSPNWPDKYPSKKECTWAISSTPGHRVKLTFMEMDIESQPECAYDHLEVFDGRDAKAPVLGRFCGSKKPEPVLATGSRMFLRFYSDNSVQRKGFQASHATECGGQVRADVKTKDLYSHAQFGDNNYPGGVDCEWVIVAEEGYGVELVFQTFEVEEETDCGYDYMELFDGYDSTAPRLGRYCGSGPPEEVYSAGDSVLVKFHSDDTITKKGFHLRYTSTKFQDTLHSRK
Put plainly: Ability to inhibit procollagen C-terminal proteinase (PCP) tested in vitro.

For test [3], the target named is Neutrophil collagenase (Homo sapiens, UniProt P22894). As to the kind of experiment: Inhibition of MMP-8.
Sequence of Neutrophil collagenase (P22894 whole entry): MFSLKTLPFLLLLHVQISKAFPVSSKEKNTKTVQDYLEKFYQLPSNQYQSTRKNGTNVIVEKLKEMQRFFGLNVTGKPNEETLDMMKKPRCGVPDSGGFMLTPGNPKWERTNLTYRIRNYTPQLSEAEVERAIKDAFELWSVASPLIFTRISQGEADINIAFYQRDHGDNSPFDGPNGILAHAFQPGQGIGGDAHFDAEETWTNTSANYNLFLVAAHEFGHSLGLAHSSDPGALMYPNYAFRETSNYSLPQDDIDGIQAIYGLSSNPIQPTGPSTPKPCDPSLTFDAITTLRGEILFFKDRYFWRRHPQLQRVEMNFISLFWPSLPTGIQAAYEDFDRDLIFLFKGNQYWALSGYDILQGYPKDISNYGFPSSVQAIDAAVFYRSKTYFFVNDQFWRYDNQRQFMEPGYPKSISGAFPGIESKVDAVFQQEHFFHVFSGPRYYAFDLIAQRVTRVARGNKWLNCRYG

For `CCOC(=O)N1CCN(C(=O)CC[C@H](C(=O)NO)N(Cc2ccc3c(c2)OCO3)S(=O)(=O)c2c(C)cc(OC)c(C)c2C)CC1`, the values for the inhibitory constant (Ki) in test [1], in test [2] and in test [3] were 32000 nM, 43 nM and 30000 nM, respectively. In test [2], `COc1ccc(S(=O)(=O)N(Cc2ccc3c(c2)OCO3)[C@H](CCC(=O)N2CCN(C(=O)Nc3cccc(OC)c3)CC2)C(=O)NO)cc1` had an inhibitory constant (Ki) of 105 nM.

In test [2], `COc1ccc(S(=O)(=O)N(Cc2ccc3c(c2)OCO3)[C@H](CCC(=O)N2CCN(c3ccccn3)CC2)C(=O)NO)cc1` registered a Ki of 210 nM. On to `COc1cc(C)c(S(=O)(=O)N(Cc2ccc3c(c2)OCO3)[C@H](CCC(=O)N2CCN(C(=O)OCc3ccccc3)CC2)C(=O)NO)c(C)c1C`, for which the values for the Ki in test [1], in test [2] and in test [3] were greater than 40000 nM, 100 nM and 35000 nM, respectively. The compound `COC(=O)CC[C@H](C(=O)NO)N(Cc1ccc(C)c([N+](=O)[O-])c1)S(=O)(=O)c1ccc(OC)cc1` returned an inhibitory constant (Ki) in test [2] greater than 40000 nM. Compound `COc1ccc(NC(=O)N2CCN(C(=O)CC[C@H](C(=O)NO)N(Cc3ccc4c(c3)OCO4)S(=O)(=O)c3ccc(OC)cc3)CC2)cc1` gave a Ki in test [2] of 90 nM. The same measure, in the same setting: the result for `COc1ccc(S(=O)(=O)N(Cc2ccc3c(c2)OCO3)[C@H](CCC(=O)N(CCC#N)Cc2ccccc2)C(=O)NO)cc1` reads 33 nM; that for `COc1ccc(S(=O)(=O)N(Cc2ccc3c(c2)OCO3)[C@H](CCC(=O)N2CCC(Cc3ccccc3)CC2)C(=O)NO)cc1`, 120 nM; that for `COc1ccc(S(=O)(=O)N(Cc2ccc3c(c2)OCO3)[C@H](CCC(=O)N2CCN(C(=O)c3ccccc3)CC2)C(=O)NO)cc1`, 35 nM. On the same count and under the same terms, under `COc1ccc(S(=O)(=O)N(Cc2ccc3c(c2)OCO3)[C@H](CCC(=O)N(Cc2ccccc2)Cc2ccccc2)C(=O)NO)cc1` stands 400 nM.

The compound `COc1ccc(S(=O)(=O)N(Cc2ccc3c(c2)OCO3)[C@H](CCC(=O)NCC2CC2)C(=O)NO)cc1` gave a Ki in test [2] of 660 nM. Still for that read-out and setting: under `COc1ccc(S(=O)(=O)N(Cc2ccc3c(c2)OCO3)[C@H](CCC(=O)N2CCN(c3ccccc3)CC2)C(=O)NO)cc1` stands 340 nM; under `COC(=O)CC[C@H](C(=O)NO)N(Cc1ccc(OC)cc1)S(=O)(=O)c1ccc(OC)cc1`, 15000 nM; under `COc1ccc(S(=O)(=O)N(Cc2ccc3c(c2)OCO3)[C@H](CCC(=O)N2CCN(C)CC2)C(=O)NO)cc1`, 1000 nM. On the same count and under the same terms, under `COC(=O)C[C@H](C(=O)NO)N(Cc1ccc2c(c1)OCO2)S(=O)(=O)c1ccc(OC)cc1` stands 950 nM. For `COc1cc(C)c(S(=O)(=O)N(Cc2ccc3c(c2)OCO3)[C@H](CCC(=O)N2CCN(c3ccccc3)CC2)C(=O)NO)c(C)c1C`, the Ki was greater than 40000 nM in test [1], 110 nM in test [2] and 13000 nM in test [3]. For the compound `COc1ccc(S(=O)(=O)N(Cc2ccc3c(c2)OCO3)[C@H](CCC(=O)N2CCN(Cc3ccccn3)CC2)C(=O)NO)cc1`, the Ki in test [2] is greater than 1000 nM. Same read-out and setting: under `COc1ccc(S(=O)(=O)N(Cc2ccc3c(c2)OCO3)[C@H](CCC(=O)N2CCN(Cc3cccnc3)CC2)C(=O)NO)cc1` stands 620 nM. The compound `CCN(CC)C(=O)CC[C@H](C(=O)NO)N(Cc1ccc2c(c1)OCO2)S(=O)(=O)c1ccc(OC)cc1` showed a Ki in test [2] of 1300 nM. Still for that read-out and setting: the result for `COc1ccc(S(=O)(=O)N(Cc2ccc3c(c2)OCO3)[C@H](CCC(=O)N(CCc2ccccc2)Cc2ccccc2)C(=O)NO)cc1` reads 100 nM.

In turn, `COC(=O)CC[C@H](C(=O)NO)N(Cc1ccc(C(F)(F)F)cc1)S(=O)(=O)c1ccc(OC)cc1` yielded an inhibitory constant (Ki) in test [2] greater than 40000 nM. Regarding `COc1ccc(S(=O)(=O)N(Cc2ccc3c(c2)OCO3)[C@H](CCC(=O)N2CCNCC2)C(=O)NO)cc1`, the Ki in test [2] turned out to be 1200 nM. Take `COc1ccc(S(=O)(=O)N(Cc2ccc3c(c2)OCO3)[C@H](CCC(=O)N2CCN(Cc3ccccc3)CC2)C(=O)NO)cc1`: the Ki in test [2] turned out to be 740 nM. The same measure, in the same setting: under `COc1ccc(S(=O)(=O)N(Cc2ccc3c(c2)OCO3)[C@H](CCC(=O)NCc2ccc(-c3ccccc3)cc2)C(=O)NO)cc1` stands 11 nM.

As to `COc1ccc(S(=O)(=O)N(Cc2ccc3c(c2)OCO3)[C@H](CCC(=O)N2CCN(C(C)=O)CC2)C(=O)NO)cc1`, the figures for the Ki in test [1], in test [2] and in test [3] were 120 nM, 200 nM and 9 nM, respectively. `COc1cc(C)c(S(=O)(=O)N(Cc2ccc3c(c2)OCO3)[C@H](CCC(=O)N2CCN(C(C)=O)CC2)C(=O)NO)c(C)c1C`: the Ki came to 37000 nM in test [1], 63 nM in test [2] and 7000 nM in test [3]. With `COc1ccc(S(=O)(=O)N(Cc2ccc3c(c2)OCO3)[C@H](CCC(=O)NCc2ccccn2)C(=O)NO)cc1`, the affinity in test [2], expressed as Ki, was 530 nM. `COc1ccc(S(=O)(=O)N(Cc2ccc3c(c2)OCO3)[C@H](CCC(=O)NCC(C)C)C(=O)NO)cc1` gave a Ki in test [2] of 280 nM. The same measure, in the same setting: under `COC(=O)CC[C@H](C(=O)NO)N(Cc1ccc(Br)cc1)S(=O)(=O)c1ccc(OC)cc1` stands greater than 40000 nM. The same measure, in the same setting: under `COc1ccc(S(=O)(=O)N(Cc2ccc3c(c2)OCO3)[C@H](CCC(=O)N2CCN(C(=O)c3ccco3)CC2)C(=O)NO)cc1` stands 40 nM. On the same count and under the same terms, the result for `COc1ccc(S(=O)(=O)N(Cc2ccc3c(c2)OCO3)[C@H](CCC(=O)N2CCN(Cc3ccncc3)CC2)C(=O)NO)cc1` reads greater than 1000 nM.

Consider `COc1ccc(S(=O)(=O)N(Cc2ccc3c(c2)OCO3)[C@H](CCC(=O)N(C)C)C(=O)NO)cc1`, for which, in test [2], the Ki was determined as 330 nM. Turning to `CCNC(=O)CC[C@H](C(=O)NO)N(Cc1ccc2c(c1)OCO2)S(=O)(=O)c1ccc(OC)cc1`, the affinity in test [2], expressed as Ki, was 1200 nM.

In test [2], `COc1ccc(S(=O)(=O)N(Cc2ccc3c(c2)OCO3)[C@H](CCC(=O)NCc2ccccc2)C(=O)NO)cc1` gave a Ki of 98 nM. The same measure, in the same setting: the result for `COc1ccc(S(=O)(=O)N(Cc2ccc3c(c2)OCO3)[C@H](CCC(=O)NCCC(C)C)C(=O)NO)cc1` reads 20 nM.

Compound `COc1ccc(S(=O)(=O)N(Cc2ccc3c(c2)OCO3)[C@H](CCC(=O)N2CCOCC2)C(=O)NO)cc1` showed a Ki in test [2] of 190 nM. On to `COc1ccc(S(=O)(=O)N(Cc2ccc3c(c2)OCO3)[C@H](CCC(=O)N2CCN(C(=O)OCc3ccccc3)CC2)C(=O)NO)cc1`, for which the Ki in test [2] is 260 nM.

Turning to `COc1ccc(S(=O)(=O)N(Cc2ccc3c(c2)OCO3)[C@H](CCC(=O)NCC2CCCCC2)C(=O)NO)cc1`, the Ki in test [2] was determined as 410 nM. Still for that read-out and setting: the result for `COc1ccc(S(=O)(=O)N(Cc2ccc3c(c2)OCO3)[C@H](CCC(=O)NCc2cccnc2)C(=O)NO)cc1` reads 160 nM. `CCOC(=O)N1CCN(C(=O)CC[C@H](C(=O)NO)N(Cc2ccc3c(c2)OCO3)S(=O)(=O)c2ccc(OC)cc2)CC1`: the Ki worked out at 90 nM in test [1], 64 nM in test [2] and 6 nM in test [3]. For the compound `COc1ccc(S(=O)(=O)N(Cc2ccc3c(c2)OCO3)[C@H](CCC(=O)N2CCN(S(C)(=O)=O)CC2)C(=O)NO)cc1`, the affinity in test [2], expressed as Ki, was 340 nM. Same read-out and setting: under `COC(=O)CC[C@H](C(=O)NO)N(Cc1ccc2c(c1)OCO2)S(=O)(=O)c1ccc(OC)cc1` stands 300 nM; under `COc1ccc(S(=O)(=O)N(Cc2ccc3c(c2)OCO3)[C@H](CCC(=O)N(CCC#N)Cc2cccnc2)C(=O)NO)cc1`, 480 nM; under `COc1ccc(S(=O)(=O)N(Cc2ccc3c(c2)OCO3)[C@H](CCC(=O)NCc2ccncc2)C(=O)NO)cc1`, 1170 nM.

Values taken from ChEMBL document CHEMBL1136112, “Novel inhibitors of procollagen C-proteinase. Part 2: glutamic acid hydroxamates” (Bioorg Med Chem Lett, 2003).
